{"source": "ChEMBL document CHEMBL1201862", "about": "“PubChem BioAssay data set” (2004)", "test_in_all_cases": "NCI anticancer screen, dose series, 48 h", "key": {"786-0": {"test_system": "786-0"}, "A498": {"test_system": "A498"}, "A549": {"test_system": "A549"}, "CAKI-1": {"test_system": "CAKI-1"}, "CCRF-CEM": {"test_system": "CCRF-CEM"}, "COLO 205": {"test_system": "COLO 205"}, "DLD-1": {"test_system": "DLD-1"}, "DMS-273": {"test_system": "DMS-273"}, "EKVX": {"test_system": "EKVX"}, "HCC 2998": {"test_system": "HCC 2998"}, "HCT-116": {"test_system": "HCT-116"}, "HCT-15": {"test_system": "HCT-15"}, "HL-60": {"test_system": "HL-60"}, "HOP-62": {"test_system": "HOP-62"}, "HT-29": {"test_system": "HT-29"}, "IGROV-1": {"test_system": "IGROV-1"}, "K562": {"test_system": "K562"}, "KM-20L2": {"test_system": "KM-20L2"}, "KM12": {"test_system": "KM12"}, "LOX IMVI": {"test_system": "LOX IMVI"}, "LXFL 529": {"test_system": "LXFL 529"}, "M14": {"test_system": "M14"}, "M19-MEL": {"test_system": "M19-MEL"}, "MOLT-4": {"test_system": "MOLT-4"}, "Malme-3M": {"test_system": "Malme-3M"}, "NCI-H23": {"test_system": "NCI-H23"}, "NCI-H522": {"test_system": "NCI-H522"}, "OVCAR-3": {"test_system": "OVCAR-3"}, "OVCAR-4": {"test_system": "OVCAR-4"}, "OVCAR-5": {"test_system": "OVCAR-5"}, "OVCAR-8": {"test_system": "OVCAR-8"}, "RPMI-8226": {"test_system": "RPMI-8226"}, "SF-268": {"test_system": "SF-268"}, "SF-295": {"test_system": "SF-295"}, "SF-539": {"test_system": "SF-539"}, "SK-MEL-28": {"test_system": "SK-MEL-28"}, "SK-MEL-2": {"test_system": "SK-MEL-2"}, "SK-MEL-5": {"test_system": "SK-MEL-5"}, "SK-OV-3": {"test_system": "SK-OV-3"}, "SN12C": {"test_system": "SN12C"}, "SNB-19": {"test_system": "SNB-19"}, "SNB-75": {"test_system": "SNB-75"}, "SNB-78": {"test_system": "SNB-78"}, "SW-620": {"test_system": "SW-620"}, "TK-10": {"test_system": "TK-10"}, "U-251": {"test_system": "U-251"}, "UACC-257": {"test_system": "UACC-257"}, "UACC-62": {"test_system": "UACC-62"}, "UO-31": {"test_system": "UO-31"}, "DMS-114": {"test_system": "DMS-114"}, "XF498": {"test_system": "XF498"}, "HOP-18": {"test_system": "HOP-18"}, "HOP-92": {"test_system": "HOP-92"}, "NCI-H460": {"test_system": "NCI-H460"}, "RXF 393": {"test_system": "RXF 393"}, "ACHN": {"test_system": "ACHN"}}, "note": "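In this assay, cells in 96-well plates receive the compound at five concentrations for 48 hours. Endpoints are linearly interpolated between the surrounding concentrations. Abbreviation: GI50, concentration required for 50% inhibition of growth.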 Active and inactive are the calls of the source. No stated cut-off is given here; in the data, active = GI50 up to about 1.1 µM and inactive = higher.", "data": [{"smiles": "CCOc1ccc(/N=N/c2ccc3oc(=O)c(C(=O)Nc4ccc(OC)cc4)cc3c2)cc1", "values": [{"measurement": "GI50", "setting": "786-0", "result": "21.9 µM (inactive)"}, {"measurement": "GI50", "setting": "A498", "result": "4.22 µM (inactive)"}, {"measurement": "GI50", "setting": "A549", "result": "40.1 µM (inactive)"}, {"measurement": "GI50", "setting": "CAKI-1", "result": "11 µM (inactive)"}, {"measurement": "GI50", "setting": "CCRF-CEM", "result": "2.36 µM (inactive)"}, {"measurement": "GI50", "setting": "COLO 205", "result": "47.9 µM (inactive)"}, {"measurement": "GI50", "setting": "DLD-1", "result": "8.32 µM (inactive)"}, {"measurement": "GI50", "setting": "DMS-273", "result": "25.8 µM (inactive)"}, {"measurement": "GI50", "setting": "EKVX", "result": "26.6 µM (inactive)"}, {"measurement": "GI50", "setting": "HCC 2998", "result": "10.8 µM (inactive)"}, {"measurement": "GI50", "setting": "HCT-116", "result": "11.3 µM (inactive)"}, {"measurement": "GI50", "setting": "HCT-15", "result": 6.12, "unit": "µM"}, {"measurement": "GI50", "setting": "HL-60", "result": "2.88 µM (inactive)"}, {"measurement": "GI50", "setting": "HOP-62", "result": "21.9 µM (inactive)"}, {"measurement": "GI50", "setting": "HT-29", "result": "42.5 µM (inactive)"}, {"measurement": "GI50", "setting": "IGROV-1", "result": "23.5 µM (inactive)"}, {"measurement": "GI50", "setting": "K562", "result": "8.38 µM (inactive)"}, {"measurement": "GI50", "setting": "KM-20L2", "result": "32.2 µM (inactive)"}, {"measurement": "GI50", "setting": "KM12", "result": "30.8 µM (inactive)"}, {"measurement": "GI50", "setting": "LOX IMVI", "result": "11.4 µM (inactive)"}, {"measurement": "GI50", "setting": "LXFL 529", "result": "6.82 µM (inactive)"}, {"measurement": "GI50", "setting": "M14", "result": "> 10 µM (inactive)"}, {"measurement": "GI50", "setting": "M19-MEL", "result": "26.4 µM (inactive)"}, {"measurement": "GI50", "setting": "MOLT-4", "result": "4.07 µM (inactive)"}, {"measurement": "GI50", "setting": "Malme-3M", "result": "30.1 µM (inactive)"}, {"measurement": "GI50", "setting": "NCI-H23", "result": "19.7 µM (inactive)"}, {"measurement": "GI50", "setting": "NCI-H522", "result": "21.8 µM (inactive)"}, {"measurement": "GI50", "setting": "OVCAR-3", "result": "19.5 µM (inactive)"}, {"measurement": "GI50", "setting": "OVCAR-4", "result": "7.1 µM (inactive)"}, {"measurement": "GI50", "setting": "OVCAR-5", "result": "32 µM (inactive)"}, {"measurement": "GI50", "setting": "OVCAR-8", "result": "12.7 µM (inactive)"}, {"measurement": "GI50", "setting": "RPMI-8226", "result": "11.1 µM (inactive)"}, {"measurement": "GI50", "setting": "SF-268", "result": "9.1 µM (inactive)"}, {"measurement": "GI50", "setting": "SF-295", "result": "31.2 µM (inactive)"}, {"measurement": "GI50", "setting": "SF-539", "result": "20.2 µM (inactive)"}, {"measurement": "GI50", "setting": "SK-MEL-28", "result": "18.9 µM (inactive)"}, {"measurement": "GI50", "setting": "SK-MEL-2", "result": "18.6 µM (inactive)"}, {"measurement": "GI50", "setting": "SK-MEL-5", "result": "15 µM (inactive)"}, {"measurement": "GI50", "setting": "SK-OV-3", "result": "41.9 µM (inactive)"}, {"measurement": "GI50", "setting": "SN12C", "result": "18 µM (inactive)"}, {"measurement": "GI50", "setting": "SNB-19", "result": "14 µM (inactive)"}, {"measurement": "GI50", "setting": "SNB-75", "result": "33.7 µM (inactive)"}, {"measurement": "GI50", "setting": "SNB-78", "result": "21.3 µM (inactive)"}, {"measurement": "GI50", "setting": "SW-620", "result": "18.5 µM (inactive)"}, {"measurement": "GI50", "setting": "TK-10", "result": "17.1 µM (inactive)"}, {"measurement": "GI50", "setting": "U-251", "result": "14.1 µM (inactive)"}, {"measurement": "GI50", "setting": "UACC-257", "result": "27.9 µM (inactive)"}, {"measurement": "GI50", "setting": "UACC-62", "result": "11.7 µM (inactive)"}, {"measurement": "GI50", "setting": "UO-31", "result": "5.57 µM (inactive)"}]}, {"smiles": "CCCCCCCCCCCCCB(O)O", "values": [{"measurement": "GI50", "setting": "CCRF-CEM", "result": "> 100 µM (inactive)"}, {"measurement": "GI50", "setting": "DMS-114", "result": "> 100 µM (inactive)"}, {"measurement": "GI50", "setting": "DMS-273", "result": "> 100 µM (inactive)"}, {"measurement": "GI50", "setting": "M14", "result": "> 100 µM (inactive)"}, {"measurement": "GI50", "setting": "NCI-H23", "result": "> 100 µM (inactive)"}, {"measurement": "GI50", "setting": "OVCAR-3", "result": "> 100 µM (inactive)"}, {"measurement": "GI50", "setting": "OVCAR-5", "result": "> 100 µM (inactive)"}, {"measurement": "GI50", "setting": "SK-MEL-2", "result": "> 100 µM (inactive)"}, {"measurement": "GI50", "setting": "SNB-19", "result": "> 100 µM (inactive)"}, {"measurement": "GI50", "setting": "SW-620", "result": "> 100 µM (inactive)"}, {"measurement": "GI50", "setting": "U-251", "result": "> 100 µM (inactive)"}, {"measurement": "GI50", "setting": "XF498", "result": "> 100 µM (inactive)"}]}, {"smiles": "CN(O)C(=O)SCC(NC(=O)CCC(N)C(=O)O)C(=O)NCC(=O)O", "note": "(stereo not given)", "values": [{"measurement": "GI50", "setting": "CCRF-CEM", "result": "1.67 µM (inactive)"}, {"measurement": "GI50", "setting": "DMS-273", "result": "1.52 µM (inactive)"}, {"measurement": "GI50", "setting": "HCT-15", "result": 24.3, "unit": "µM"}, {"measurement": "GI50", "setting": "HL-60", "result": "318 µM (inactive)"}, {"measurement": "GI50", "setting": "HOP-18", "result": "619 µM (inactive)"}, {"measurement": "GI50", "setting": "HOP-62", "result": "173 µM (inactive)"}, {"measurement": "GI50", "setting": "HOP-92", "result": "294 µM (inactive)"}, {"measurement": "GI50", "setting": "HT-29", "result": "1.31 µM (inactive)"}, {"measurement": "GI50", "setting": "K562", "result": "305 µM (inactive)"}, {"measurement": "GI50", "setting": "KM12", "result": "1050 µM (inactive)"}, {"measurement": "GI50", "setting": "LOX IMVI", "result": "1.46 µM (inactive)"}, {"measurement": "GI50", "setting": "MOLT-4", "result": "1100 µM (inactive)"}, {"measurement": "GI50", "setting": "NCI-H460", "result": "783 µM (inactive)"}, {"measurement": "GI50", "setting": "RPMI-8226", "result": "964 µM (inactive)"}, {"measurement": "GI50", "setting": "RXF 393", "result": "518 µM (inactive)"}, {"measurement": "GI50", "setting": "SF-268", "result": "1630 µM (inactive)"}, {"measurement": "GI50", "setting": "SK-MEL-2", "result": "446 µM (inactive)"}, {"measurement": "GI50", "setting": "SK-OV-3", "result": "294 µM (inactive)"}, {"measurement": "GI50", "setting": "SNB-75", "result": "618 µM (inactive)"}, {"measurement": "GI50", "setting": "SW-620", "result": "1760 µM (inactive)"}, {"measurement": "GI50", "setting": "U-251", "result": "41.7 µM (inactive)"}]}, {"smiles": "COc1cc(C2c3cc4c(cc3[C@@H](NCCCN3CCCC3=O)C3COC(=O)[C@H]23)OCO4)cc(OC)c1O", "note": "(stereo not given in full)", "values": [{"measurement": "GI50", "setting": "ACHN", "result": "3.41 µM (inactive)"}, {"measurement": "GI50", "setting": "COLO 205", "result": "7.76 µM (inactive)"}, {"measurement": "GI50", "setting": "EKVX", "result": "> 100 µM (inactive)"}, {"measurement": "GI50", "setting": "HCC 2998", "result": "19.1 µM (inactive)"}, {"measurement": "GI50", "setting": "HOP-18", "result": "28.7 µM (inactive)"}, {"measurement": "GI50", "setting": "KM12", "result": "21 µM (inactive)"}, {"measurement": "GI50", "setting": "OVCAR-3", "result": "45.9 µM (inactive)"}, {"measurement": "GI50", "setting": "RXF 393", "result": "6.84 µM (inactive)"}, {"measurement": "GI50", "setting": "SK-MEL-28", "result": "15.4 µM (inactive)"}, {"measurement": "GI50", "setting": "SK-MEL-2", "result": "36.2 µM (inactive)"}, {"measurement": "GI50", "setting": "SK-OV-3", "result": "4.29 µM (inactive)"}, {"measurement": "GI50", "setting": "SNB-75", "result": "1.67 µM (inactive)"}, {"measurement": "GI50", "setting": "TK-10", "result": "30.3 µM (inactive)"}]}]}
